Values joined by “and” are separate entries in the source; they are usually repeats but may differ in a detail not shown here. Equal values may be shown once. Read-outs that look alike come from different tables or passages of the source.
Columns and labels:
ADRα2A = test: PBK modelling-based reverse dosimetry of in vitro EC50 to ED50, ADRα2A; details: predicted human oral ED50 from in vitro EC50 (Pinckaers et al. [2024]) and modelled Cmax plasma venous
Description: (§1) The in vitro effect concentrations (EC50), for activation of the α1A, α1B, α1D, α2A, α2B, β1 and β2 ADR activation and the activation of TAAR1, were obtained from our previous study (Pinckaers et al. [2024]).

ADRβ1 = test: PBK modelling-based reverse dosimetry of in vitro EC50 to ED50, ADRβ1; set-up: species or system human; details: for ADRβ1 ED50: predicted human oral ED50 from in vitro EC50 (Pinckaers et al. [2024]) and modelled Cmax plasma venous
[1] = In vitro hepatic clearance by human liver S9 (compound depletion); format: in vitro ADME; details: for Predicted intrinsic hepatic metabolic clearance CLmet: CLint,u scaled to a whole liver, 121 mg HLS9/g liver; for Predicted intrinsic hepatic metabolic clearance CLmet / k el at 1 µM / microsomal CLint at 1 µM: human; for metabolism in incubations without co-factor mix: HLS9 without co-factor mix; for k el at 1 µM: pH 7.4
Experimental: In vitro intrinsic hepatic clearance (CLint) values of the phenethylamine analogues were determined in experiments with pooled human liver S9 (HLS9; Corning, Woburn, MA, USA and Gibco, USA), by measuring the rate of compound depletion. Stocks of 1 mM PEA compounds were prepared in DMSO and stocks of 10 mg/mL alamethicin were prepared in methanol. The final incubation mixtures consisted of 1 µM of PEA compound (0.1% DMSO) in 100 mM potassium phosphate buffer with 5 mM magnesium chloride (pH 7.4) supplemented with 0.025 mg/mL alamethicin (0.25% methanol) and 0.1–2 mg/mL HLS9. […] Incubation mixtures were first pre-incubated at 37 °C in a shaking incubator at 300 rpm for 5 min. After 5 min, the reaction was initiated by adding a co-factor mix in supplemented buffer with final concentrations of 3 mM nicotinamide adenine dinucleotide phosphate (NADPH; for oxidation, reduction and hydrolysis), 5 mM uridine diphosphate glucuronic acid (UDPGA; for glucuronidation), 0.2 mM adenosine 3’-phosphate 5’-phosphosulfate lithium salt hydrate (PAPS; for sulfation) and 0.2 mM S-(5’-Adenosyl)-L-methionine p-toluenesulfonate salt (SAM; for methylation). The final incubation volume was 100 µL and incubations were performed in 1.5 mL Safe-Lock Eppendorf tubes (Eppendorf) in a shaking incubator (300 rpm) at 37 °C (Eppendorf Thermomixer). Incubations were terminated by adding 100 µL ice-cold acetonitrile after, 0, 2.5, 5, 10, 20, 40 and 60 min. Then, samples were vortexed, put on ice and stored at -20 °C until the day of the LC–MS/MS analysis. Controls of incubation mixtures without HLS9 or mixtures without co-factors were also included. Two independent experiments, both in duplicate, were performed on different days. On the day of the LC–MS/MS analysis, samples were thawed and centrifuged at 15,000 rpm for 10 min. The supernatant was collected in glass insert vials for LC injection (BGB Analytik, Harderwijk, The Netherlands). Details on the methods of the LC–MS/MS analysis are described in Sect. "LC–MS/MS analysis". After determining the PEA (analogue) amount at the different time points, the CLint was calculated. The natural logarithm of compound concentrations was plotted against time and the slope of this curve represented the elimination rate constant k (in 1/min). The half-life (t1/2 in minutes) was calculated by: ln (2)/k (in 1/min). The volume of incubation (V) in µL/mg protein was determined by: 1000 / HLS9 concentration (in mg/mL). Finally, CLint could be calculated by: CLintμL/min/mg protein=VμL/mg protein∗ln2/t1/2min.
The fraction unbound in these in vitro liver clearance incubations was calculated with the method of (Hallifax and Houston [2006]) in which unspecific binding in HLS9 incubations was assumed to be the same as in liver microsomal incubations. The in vitro obtained HLS9 CLint values were corrected for protein binding in the HLS9 incubation and were scaled to a whole liver by using a scaling factor of 121 mg HLS9/g liver (Houston and Galetin [2008]).

ADRα1D = test: PBK modelling-based reverse dosimetry of in vitro EC50 to ED50, ADRα1D; details: predicted human oral ED50 from in vitro EC50 (Pinckaers et al. [2024]) and modelled Cmax plasma venous
Description: as §1

ADRα1A = test: PBK modelling-based reverse dosimetry of in vitro EC50 to ED50, ADRα1A; details: predicted human oral ED50 from in vitro EC50 (Pinckaers et al. [2024]) and modelled Cmax plasma venous
Description: as §1

TAAR1 = test: PBK modelling-based reverse dosimetry of in vitro EC50 to ED50, TAAR1; set-up: species or system human; details: for TAAR1 ED50: predicted human oral ED50 from in vitro EC50 (Pinckaers et al. [2024]) and modelled Cmax plasma venous; for dose needed to reach internal effect concentrations, times lower than the dose of higenamine: TAAR1, Fig. 6F
Description: as §1

[2] = full reaction mix (HLS9 and co-factor mix), 1 µM, HLS9 concentration per compound (0.10-2 mg/mL), read-out: elimination rate constant k (converted)
[3] = s9, pH 7.4, CLint app corrected for unspecific protein (HLS9) binding, read-out: In vitro CLint,u
[4] = s9, pH 7.4, human liver S9 with co-factor mix (NADPH, UDPGA, PAPS, SAM), 1 µM, read-out: In vitro CLint app

SMILES | ADRα2A ED50 (ADRα2A) | ADRβ1 ED50 (ADRβ1) | Predicted intrinsic hepatic metabolic clearance CLmet [1] [L/h] | metabolism in incubations without co-factor mix [1] | k el at 1 µM [1, 2] [s⁻¹] | microsomal CLint at 1 µM [1, 3] [µL/min/mg] | microsomal CLint at 1 µM [1, 4] [µL/min/mg] | ADRα1D ED50 (ADRα1D) | ADRα1A ED50 (ADRα1A) | TAAR1 ED50 (TAAR1) | predicted equivalent oral dose, times lower than the dose of higenamine (ADRβ1; ADRβ1, dose needed to reach the internal effect concentration) [times] | k el at 1 µM [1] [s⁻¹] | dose needed to reach internal effect concentrations, times lower than the dose of higenamine (TAAR1) [times]
CN(C)CCc1ccccc1 [Dimethylphenethylamine, N,N-dimethylphenethylamine] | – (compounds with a dash (-) did not activate the receptors in vitro at concentrations ≤ 300 µM) | – (compounds with a dash (-) did not activate the receptors in vitro at concentrations ≤ 300 µM) | 245 | metabolized in incubations without co-factor mix | 0.000667 | 23 | 20 | 5.60 mg/kg bw | – (compounds with a dash (-) did not activate the receptors in vitro at concentrations ≤ 300 µM) | 14.0 mg/kg bw |  |  | 
CNCC(O)c1ccccc1 (stereo not drawn) [Halostachine, halostachine] | – (compounds with a dash (-) did not activate the receptors in vitro at concentrations ≤ 300 µM) | – (compounds with a dash (-) did not activate the receptors in vitro at concentrations ≤ 300 µM) | 416 | metabolized in incubations without co-factor mix | 0.000312 | 39 | 37.4 | 2.52 mg/kg bw | 10.5 mg/kg bw | 88.9 mg/kg bw |  |  | 
CN(C)CCc1ccc(O)cc1 [Hordenine, hordenine] | 234 mg/kg bw | – (compounds with a dash (-) did not activate the receptors in vitro at concentrations ≤ 300 µM) | 27.0 |  | 7.33e-05 | 2.53 | 2.2 | 11.5 mg/kg bw | – (compounds with a dash (-) did not activate the receptors in vitro at concentrations ≤ 300 µM) | 15.9 mg/kg bw |  |  | 
CC(C)NCC(O)c1ccc(O)cc1 (stereo not drawn) [Isopropyloctopamine, isopropyloctopamine] | – (compounds with a dash (-) did not activate the receptors in vitro at concentrations ≤ 300 µM) |  | 27.3 |  |  | 2.56 | 2.15 | – (compounds with a dash (-) did not activate the receptors in vitro at concentrations ≤ 300 µM) | – (compounds with a dash (-) did not activate the receptors in vitro at concentrations ≤ 300 µM) | 1.26 mg/kg bw | 2.5 | 7.17e-05 | 4.8
CNC(C)C(O)c1ccc(O)cc1 (stereo not drawn) [Methylsynephrine] | – (compounds with a dash (-) did not activate the receptors in vitro at concentrations ≤ 300 µM) | 16.9 mg/kg bw | 19.7 |  | 4.97e-05 | 1.84 | 1.49 | – (compounds with a dash (-) did not activate the receptors in vitro at concentrations ≤ 300 µM) | 29.7 mg/kg bw | – (compounds with a dash (-) did not activate the receptors in vitro at concentrations ≤ 300 µM) |  |  | 
NCCc1ccccc1 [Phenethylamine, phenethylamine] | – (compounds with a dash (-) did not activate the receptors in vitro at concentrations ≤ 300 µM) | – (compounds with a dash (-) did not activate the receptors in vitro at concentrations ≤ 300 µM) | 2598 | metabolized in incubations without co-factor mix | 0.000402 | 243 | 241 | – (compounds with a dash (-) did not activate the receptors in vitro at concentrations ≤ 300 µM) | – (compounds with a dash (-) did not activate the receptors in vitro at concentrations ≤ 300 µM) | 67.7 mg/kg bw |  |  | 
CNCC(O)c1ccc(O)cc1 (stereo not drawn) [p-Synephrine, Synephrine] | 139 mg/kg bw |  | 140 | metabolized in incubations without co-factor mix | 0.000198 | 13.1 | 11.9 | 2.35 mg/kg bw | 3.32 mg/kg bw | 127 mg/kg bw |  |  | 
CC(CN)c1ccccc1 (stereo not drawn) [β-Methylphenethylamine, β-methylphenethylamine] | – (compounds with a dash (-) did not activate the receptors in vitro at concentrations ≤ 300 µM) | – (compounds with a dash (-) did not activate the receptors in vitro at concentrations ≤ 300 µM) | 139 | metabolized in incubations without co-factor mix | 0.000403 | 13 | 12.1 | – (compounds with a dash (-) did not activate the receptors in vitro at concentrations ≤ 300 µM) | – (compounds with a dash (-) did not activate the receptors in vitro at concentrations ≤ 300 µM) | 0.995 mg/kg bw and 0.955 mg/kg bw |  |  | 6.4
